Earlier results as cited in patent US20190114390A1, “DRUG REPURPOSING BASED ON DEEP EMBEDDINGS OF GENE EXPRESSION PROFILES” (BioAge Labs, Inc., priority 2017, published 2019).

Assays:
[1] = known property
[2] = test system: imidazole I-2 receptors; conditions: known property

Compound	effect on glucose levels [1]	effect upon imidazole I-2 receptors [2]
CN(C)C(=N)N=C(N)N [Metformin, metformin]	lower glucose levels	direct inhibitory effect upon imidazole I-2 receptors
NC(=O)NC1NC(=O)NC1=O (stereo not shown) [allantoin]	lowers glucose levels	direct inhibitory effect upon imidazole I-2 receptors
